Experimental data from article PMC2361651 (British Journal of Cancer, 2005).
Read-outs that look alike come from different tables or passages of the source.

Legend:
[1] = parameters: method as in Fong et al, 1999; settings: preclinical models, intracellular; ref Fong et al, 1999; cited from earlier work
[2] = Plasma pharmacokinetics of SU5416 and metabolites in Phase I patients (HPLC UV); assay type: in vivo, human; settings: for Vd / AUC(0-t) / clearance / half-life / Cmax / AUC: human; for half-life: read-out: T1/2λz (converted); for Cmax: read-out: Cmax
Procedure: Samples were taken prior to treatment infusion, 15 min into the infusion, at completion of the infusion and then at 5, 10, 20, 30, 45, 60, 120 and 240 min following the infusion. […] At the designated times, 4.0 ml of blood were collected into a lithium heparin tube, gently inverted and placed on ice to maintain the sample at 2–8°C. All samples were immediately centrifuged at 6000 r.p.m. at 4°C for 10 min, the supernatant divided between two 1.5 ml Nalgene cryovials and snap frozen in liquid nitrogen. Separated plasma samples were subsequently stored at −70°C until analysis.
Pharmacokinetic analysis was performed using a fully validated HPLC UV method ([Stopeck et al, 2002]). Plasma samples, standards (25–2000 ng ml^−1) and quality controls spiked with internal standards were extracted with acetonitrile. Following centrifugation, drying and reconstitution in 200 μl mobile phase, 20 μl were analysed by HPLC UV. Chromatography was carried out using a C18 analytical column, with a gradient mobile phase containing acetonitrile and 10 mM ammonium formate at pH 2.6. The flow rate was 0.8 ml min^−1 and the run-time 21 min. Detection was via UV absorption at a wavelength of 440 nm. The accuracy of the assay, reflected in relative error of measured concentration to theoretical (prepared) concentrations, was between 0.9 and 5.6% for all quality control samples.
Pharmacokinetic parameters were evaluated using WinNonLin Software®.

[3] = in vivo, iv, 145 mg m^−2, individual patients, twice weekly i.v. infusion, dose 145 mg m^−2, cycle 1inj8
[4] = in vivo, iv, 145 mg m^−2, individual patients, twice weekly i.v. infusion, dose 145 mg m^−2, cycle 2inj8
[5] = in vivo, iv, individual patients, twice weekly i.v. infusion, dose 145 → 190 mg m^−2, cycle 2inj1
[6] = in vivo, iv, individual patients, twice weekly i.v. infusion, dose 145 → 190 mg m^−2, cycle 2inj8
[7] = in vivo, iv, individual patients, twice weekly i.v. infusion, dose 145 → 190 mg m^−2, cycle 3inj2
[8] = plasma, iv, 48 mg m^−2, individual patients, twice weekly i.v. infusion, dose 48 mg m^−2, cycle 1inj2
[9] = plasma, iv, 48 mg m^−2, individual patients, twice weekly i.v. infusion, dose 48 mg m^−2, cycle 1inj8
[10] = plasma, iv, 48 mg m^−2, individual patients, twice weekly i.v. infusion, dose 48 mg m^−2, cycle 2inj8
[11] = plasma, iv, 65 mg m^−2, individual patients, twice weekly i.v. infusion, dose 65 mg m^−2, cycle 1inj2
[12] = plasma, iv, 65 mg m^−2, individual patients, twice weekly i.v. infusion, dose 65 mg m^−2, cycle 1inj3
[13] = plasma, iv, 65 mg m^−2, individual patients, twice weekly i.v. infusion, dose 65 mg m^−2, cycle 1inj8
[14] = plasma, iv, 85 mg m^−2, individual patients, twice weekly i.v. infusion, dose 85 mg m^−2, cycle 1inj2

In the case of Cc1cc(C)c(/C=C2\C(=O)Nc3ccccc32)[nH]1 [SU5416, Z-3-[(2,4-dimethylpyrrol-5-yl)methylidenyl]-2-indolinone], the “time for which levels capable of target inhibition are maintained” value [1] is listed as > 48 h, the “average increase in drug clearance” value ([2]; day 4 vs day 25, five of the nine patients dosed at the same level on both days) is listed as 22% and the “dose linearity of kinetics” value ([2]; dose range 48–145 mg m^−2, initial assessment and day 25) is listed as “linear kinetics”. For the same compound, the Vd ([2]; in vivo, iv, 48 mg m^−2, individual patients, twice weekly i.v. infusion, dose 48 mg m^−2, cycle 1inj2, read-out: Vz (observed)) was 142 L, the AUC(0-t) ([2]; in vivo, iv, 48 mg m^−2, individual patients, twice weekly i.v. infusion, dose 48 mg m^−2, cycle 1inj8) was 816 ng·h/mL and the clearance ([2]; in vivo, iv, 85 mg m^−2, individual patients, twice weekly i.v. infusion, dose 85 mg m^−2, cycle 1inj8, read-out: CL (observed) (converted)) was 2520 mL/min. For the same compound, the half-life ([2]; in vivo, iv, 145 mg m^−2, individual patients, twice weekly i.v. infusion, dose 145 mg m^−2, cycle 1inj2) was 52.2 min, the AUC(0-t) [2, 3] was 4430 ng·h/mL and the Cmax [2, 3] was 3920 ng/mL. It also gave a half-life [2, 3] of 34.2 min, an AUC(0-t) [2, 4] of 1780 ng·h/mL and a clearance ([2]; in vivo, iv, 145 mg m^−2, individual patients, twice weekly i.v. infusion, dose 145 mg m^−2, cycle 2inj8, read-out: CL (observed) (converted)) of 3730 mL/min. It also gave a Cmax [2, 4] of 1340 ng/mL, a half-life [2, 4] of 43.2 min and a Vd ([2]; in vivo, iv, 145 mg m^−2, individual patients, twice weekly i.v. infusion, dose 145 mg m^−2, cycle 2inj8, read-out: Vz (observed)) of 233 L. For the same compound, the AUC(0-t) [2, 5] was 6450 ng·h/mL, the clearance ([2]; in vivo, iv, individual patients, twice weekly i.v. infusion, dose 145 → 190 mg m^−2, cycle 2inj1, read-out: CL (observed) (converted)) was 817 mL/min and the Cmax [2, 5] was 4000 ng/mL. For the same compound, the half-life [2, 5] was 46.2 min, the Vd ([2]; in vivo, iv, individual patients, twice weekly i.v. infusion, dose 145 → 190 mg m^−2, cycle 2inj1, read-out: Vz (observed)) was 54 L and the AUC(0-t) [2, 6] was 5040 ng·h/mL. The clearance ([2]; in vivo, iv, individual patients, twice weekly i.v. infusion, dose 145 → 190 mg m^−2, cycle 2inj8, read-out: CL (observed) (converted)) was 1320 mL/min, the Cmax [2, 6] was 3340 ng/mL and the half-life [2, 6] was 43.2 min. It also gave a Vd ([2]; in vivo, iv, individual patients, twice weekly i.v. infusion, dose 145 → 190 mg m^−2, cycle 2inj8, read-out: Vz (observed)) of 82 L, an AUC(0-t) [2, 7] of 7170 ng·h/mL and a clearance ([2]; in vivo, iv, individual patients, twice weekly i.v. infusion, dose 145 → 190 mg m^−2, cycle 3inj2, read-out: CL (observed) (converted)) of 733 mL/min. It also gave a Cmax [2, 7] of 6520 ng/mL, a half-life [2, 7] of 45 min and a Vd ([2]; in vivo, iv, individual patients, twice weekly i.v. infusion, dose 145 → 190 mg m^−2, cycle 3inj2, read-out: Vz (observed)) of 48 L. For the same compound, the clearance ([2]; in vivo, range over the 25 evaluable patients, read-out: Plasma clearance (CL)) was 767 to 3580 mL/min, the Vd ([2]; in vivo, range over the 25 evaluable patients, read-out: volume of distribution (Vd)) was 39 to 215 L and the AUC ([2]; in vivo, at 145 mg m^−2) was 3720 ± 930 ng·h/mL. It also gave an AUC ([2]; in vivo, at 190 mg m^−2 in patients escalated from 145 mg m^−2 after 2 weeks) of 3610 ± 183 ng·h/mL, a Cmax [2, 8] of 1740 ng/mL and a half-life [2, 8] of 32.4 min. It also gave a Vd ([2]; plasma, iv, 48 mg m^−2, individual patients, twice weekly i.v. infusion, dose 48 mg m^−2, cycle 1inj2, read-out: Vz (observed)) of 69 L, an AUC(0-t) [2, 9] of 630 ng·h/mL and a clearance ([2]; plasma, iv, 48 mg m^−2, individual patients, twice weekly i.v. infusion, dose 48 mg m^−2, cycle 1inj8, read-out: CL (observed) (converted)) of 2080 mL/min. It also gave a Cmax [2, 9] of 2060 ng/mL, a half-life [2, 9] of 36.6 min and a Vd ([2]; plasma, iv, 48 mg m^−2, individual patients, twice weekly i.v. infusion, dose 48 mg m^−2, cycle 1inj8, read-out: Vz (observed)) of 109 L. For the same compound, the AUC(0-t) [2, 10] was 498 ng·h/mL, the clearance ([2]; plasma, iv, 48 mg m^−2, individual patients, twice weekly i.v. infusion, dose 48 mg m^−2, cycle 2inj8, read-out: CL (observed) (converted)) was 2630 mL/min and the Cmax [2, 10] was 1630 ng/mL. The half-life [2, 10] was 34.2 min, the Vd ([2]; plasma, iv, 48 mg m^−2, individual patients, twice weekly i.v. infusion, dose 48 mg m^−2, cycle 2inj8, read-out: Vz (observed)) was 131 L and the AUC(0-t) [2, 11] was 1500 ng·h/mL. The clearance ([2]; plasma, iv, 65 mg m^−2, individual patients, twice weekly i.v. infusion, dose 65 mg m^−2, cycle 1inj2, read-out: CL (observed) (converted)) was 1070 mL/min, the Cmax [2, 11] was 4370 ng/mL and the half-life [2, 11] was 27 min. The AUC(0-t) [2, 12] was 566 ng·h/mL, the clearance ([2]; plasma, iv, 65 mg m^−2, individual patients, twice weekly i.v. infusion, dose 65 mg m^−2, cycle 1inj3, read-out: CL (observed) (converted)) was 3170 mL/min and the Cmax [2, 12] was 2070 ng/mL. For the same compound, the half-life [2, 12] was 12 min, the Vd ([2]; plasma, iv, 65 mg m^−2, individual patients, twice weekly i.v. infusion, dose 65 mg m^−2, cycle 1inj3, read-out: Vz (observed)) was 55 L and the AUC(0-t) [2, 13] was 1310 ng·h/mL. For the same compound, the clearance ([2]; plasma, iv, 65 mg m^−2, individual patients, twice weekly i.v. infusion, dose 65 mg m^−2, cycle 1inj8, read-out: CL (observed) (converted)) was 1230 mL/min, the Cmax [2, 13] was 4100 ng/mL and the half-life [2, 13] was 43.8 min. For the same compound, the Vd ([2]; plasma, iv, 65 mg m^−2, individual patients, twice weekly i.v. infusion, dose 65 mg m^−2, cycle 1inj8, read-out: Vz (observed)) was 78 L, the AUC(0-t) [2, 14] was 1810 ng·h/mL and the clearance ([2]; plasma, iv, 85 mg m^−2, individual patients, twice weekly i.v. infusion, dose 85 mg m^−2, cycle 1inj2, read-out: CL (observed) (converted)) was 1320 mL/min. The Cmax [2, 14] was 2340 ng/mL, the half-life [2, 14] was 23.4 min and the AUC(0-t) ([2]; plasma, iv, 85 mg m^−2, individual patients, twice weekly i.v. infusion, dose 85 mg m^−2, cycle 1inj8) was 2380 ng·h/mL. For the same compound, the clearance ([2]; plasma, iv, 85 mg m^−2, individual patients, twice weekly i.v. infusion, dose 85 mg m^−2, cycle 1inj8, read-out: CL (observed) (converted)) was 1000 mL/min.
